Measurements: patent US20260227412A1, “USE OF IFN-I ACTIVITY AS A BIOMARKER FOR TLR INHIBITOR TREATMENT” (MERCK PATENT GMBH, priority 2022, published 2026)

Columns and labels:
[1] = tested on: patients hospitalized with COVID-19 pneumonia; assay: Exploratory phase II clinical study of enpatoran in patients hospitalized with COVID-19 pneumonia (NCT04448756), time to recovery; format: in vivo, human
Protocol: An exploratory phase II clinical study in patients hospitalized with COVID-19 pneumonia was conducted to inter alia assess whether the TLR inhibitor enpatoran improves time to recovery (NCT04448756).
Statistical testing was considered exploratory, and results are presented with no adjustment of type I error for multiplicity. Time to recovery was defined as time from Day 1 to first occurrence of WHO 9-point ordinal scale of ≤3 and was estimated via Kaplan-Meier (KM) analysis, presented with two-sided 95% confidence intervals (CI). The effect of each dose level compared with placebo was evaluated using a stratified log-rank test.
Blood was collected directly in PAXgene RNA tubes from patients at baseline prior to treatment for measurement of gene expression. IFN-I activity was measured by DxTerity Diagnostics (Rancho Dominguez, California, USA), using the IFN-1 test, a commercially available chemical ligation-dependent probe amplification and gene expression test with relative quantitative analysis by capillary electrophoresis. Sample testing and analysis was performed as previously described (Kim et al., J Mol Diagn. 2015 March;17 (2): 118-27). The IFN-1 test measures the expression levels of four IFN response genes (HERC5, IFI27, IFIT1 and RSAD2), i.e. the Dx-4 IFN-I signature, relative to the expression levels of three housekeeping normalizer genes (ACTB, GAPDH and TFRC). Normalized expression values of each respective response gene were calculated per the following function: Normalized ExpressionGene i=Log2(HeightGene i)−Mean (Log2 (Normaliser Gene Height)). The IFN-I signature score was calculated by averaging the normalized expression values of the four response genes. The cut-off between high IFN-I signature and low IFN-I signature scores (−0.5), was set to the mean±2 SDs (95th percentile) of IFN-I signature scores from 281 healthy human donors. This cut-off falls within the trough of the observed bimodal distribution of IFN-I signature scores for cohorts of SLE patients.
149 patients received either placebo (n=49), or enpatoran 50 mg (n=54)0r 100 mg (n=46) BID. Mean IFN-I signature scores (50 mg BID-0.84; 100 mg BID-0.74; placebo-0.91) and the proportion of patients with high IFN-I signature scores at baseline (50 mg BID 35%; 100 mg BID 43%; placebo 35%) were reasonably consistent across treatment groups, as reflected by Table 2: […]

[2] = tested on: TLR7/8 activation in human PBMCs by patient-derived immune complexes; assay: IFN-α production in healthy donor PBMCs stimulated with patient-derived immune complexes (AlphaLISA); format: cell-based; conditions: PBMCs pre-treated with 1 μM enpatoran for 30 minutes, immune complex 24 hours
Excerpt: Blood sample collection: Blood samples were collected from subjects with lupus nephritis (LN), systemic lupus erythematosus (SLE), dermatomyositis (DM), polymyositis (PM), patients with inclusion body myositis (IBM) and healthy controls (HC). Blood plasma was isolated and frozen. Later, immunoglobulin G (IgG) was purified using protein A resin and the protein concentration determined.
Immune complex formation and peripheral blood mononuclear cell (PBMC) stimulation: To generate necrotic cell lysates, human embryonic kidney 293 cells were suspended at a concentration of 50 x10^6 cells/mL in phosphate buffered saline (PBS; Gibco, Grand Island, NY). The cells were frozen at −80° C. for 10 minutes followed by thawing at 37° C. Four freeze/thaw cycles were performed. The lysate was centrifuged at 400 g for 5 minutes to separate non-lysed cells and the supernatant was collected as necrotic cell lysate.
PBMCs were isolated from leukopacks collected from healthy donors (New York Blood Center, New York, NY) in sodium heparin tubes using Ficoll-Paque Plus (Cytiva Life Sciences, Uppsala, Sweeden). The cells were plated in 96-well U-bottom plates (4 x10^5 cells/well) in RPMI 1640 Medium (Gibco, Grand Island, NY) supplemented with 10% fetal bovine serum (FBS; Corning, Woodland, CA). […] The supernatants were collected and cytokine production was measured by AlphaLISA (PerkinElmer, Waltham, MA).

[3] = subgroup with high IFN-I signature scores at baseline, 50 mg BID
[4] = subgroup with high IFN-I signature scores at baseline, 100 mg BID

N#Cc1ccc(N2C[C@H](N)C[C@H](C(F)(F)F)C2)c2cccnc12 [enpatoran, 5-[(3R,5S)-3-amino-5-(trifluoromethyl)piperidin-1-yl]quinoline-8-carbonitrile]
KM-estimated cumulative recovery rate up to Day 14 [1, 3]: 78.6% | recovery rate at Day 28 [1, 3]: 73.3% | KM-estimated cumulative recovery rate up to Day 14 [1, 4]: 88.2% | recovery rate at Day 28 [1, 4]: 88.2% | recovery rate at Day 28 ([1]; subgroup with low IFN-I signature scores at baseline, 50 mg BID): 100% | recovery rate at Day 28 ([1]; subgroup with low IFN-I signature scores at baseline, 100 mg BID): 91.3% | primary efficacy endpoint of the time to recovery from Day 1 through Day 28 ([1]; unstratified patient populations, enpatoran 50 mg or 100 mg BID vs placebo): not met | recovery rate ([1]; unstratified, Day 1 through Day 28, 50 mg BID): 88.9% | recovery rate ([1]; unstratified, Day 1 through Day 28, 100 mg BID): 91.3% | median time to recovery ([1]; unstratified, range across groups (placebo, 50 mg BID, 100 mg BID)): 3.4 to 3.9 days | IFN-α production [2]: completely inhibited
